From PubChem BioAssay AID248 (DTP/NCI, 2004)
Several values for one entry are separate records, joined by “and”; a condition that tells them apart may be missing. Equal entries are not always repeated. Inconclusive results and toxic doses are left out. Cut-off read from the data, not from the text of the source: active = T/C of 150% or more; inactive = T/C below 125%.

Tested on: L1210 leukemia ip in BDF1 mice, survival T/C
Experiment: NCI In Vivo Anticancer Drug Screen. Data for tumor model L1210 Leukemia (intraperitoneal) in B6D2F1 (BDF1) mice
Settings: endpoint: mean survival time, higher = longer survival
In short: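 Ratio derived from survival: compound-dosed mice over vehicle-dosed mice, all bearing a transplantable tumor.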

[1] = dose: 100.0 mg/kg/injection, schedule: Q01DX001 (ip), vehicle: carboxymethylcellulose (CMC)
[2] = dose: 200.0 mg/kg/injection, schedule: Q01DX001 (ip), vehicle: carboxymethylcellulose (CMC)
[3] = dose: 75.0 mg/kg/injection, schedule: Q01DX001 (ip), vehicle: carboxymethylcellulose (CMC)
[4] = dose: 150.0 mg/kg/injection, schedule: Q01DX001 (ip), vehicle: carboxymethylcellulose (CMC)
[5] = dose: 100.0 mg/kg/injection, schedule: Q04DX002 (ip), vehicle: saline with Tween-80

Measured: T/C

O=C(Nc1ccc(Cl)cc1)Nc1ccccc1Cl
inactive: dose: 100.0 mg/kg/injection, schedule: Q01DX009 (ip), vehicle: gum acacia 91 % of control | dose: 100.0 mg/kg/injection, schedule: Q04DX003 (ip), vehicle: gum acacia 100 % of control | dose: 200.0 mg/kg/injection, schedule: Q01DX009 (ip), vehicle: gum acacia 87 % of control | dose: 200.0 mg/kg/injection, schedule: Q04DX003 (ip), vehicle: gum acacia 96 % of control | dose: 400.0 mg/kg/injection, schedule: Q01DX009 (ip), vehicle: gum acacia 89 % of control | dose: 400.0 mg/kg/injection, schedule: Q04DX003 (ip), vehicle: gum acacia 102 % of control

CN(C)N=Nc1ccc(CCCC(=O)NN)cc1
inactive: dose: 18.0 mg/kg/injection, schedule: Q01DX009 (ip), vehicle: other 103 % of control | dose: 22.0 mg/kg/injection, schedule: Q01DX Z (ip), vehicle: carboxymethylcellulose (CMC) 114 % of control | dose: 28.0 mg/kg/injection, schedule: Q01DX009 (ip), vehicle: other 111 % of control | [1] 111 % of control | [2] 113 % of control

CCOC(=O)C(CC#N)C(=O)OCC
inactive: [3] 104 % of control | [4] 98 % of control | dose: 300.0 mg/kg/injection, schedule: Q01DX001 (ip), vehicle: carboxymethylcellulose (CMC) 96 % of control

O=[N+]([O-])C1CCC(C2=CSC3CCCCC3N2)CC1 (stereo unspecified)
inactive: [5] 90 % of control | dose: 200.0 mg/kg/injection, schedule: Q04DX002 (ip), vehicle: saline with Tween-80 101 % of control | dose: 400.0 mg/kg/injection, schedule: Q04DX002 (ip), vehicle: saline with Tween-80 116 % of control

NNc1c(C(N)=O)c2c(N)ncnc2n1C1OC(CO)C(O)C1O (stereo unspecified)
inactive: dose: 100.0 mg/kg/injection, schedule: Q01DX005 (ip), vehicle: saline 96 % of control | dose: 200.0 mg/kg/injection, schedule: Q01DX005 (ip), vehicle: saline 100 % of control

COC1OC2COC(c3ccccc3)OC2C(NC(C)=O)C1OC(C)=O (stereo unspecified)
inactive: dose: 100.0 mg/kg/injection, schedule: Q04DX003 (ip), vehicle: saline 98 % of control | dose: 200.0 mg/kg/injection, schedule: Q04DX003 (ip), vehicle: saline 97 % of control | dose: 400.0 mg/kg/injection, schedule: Q04DX003 (ip), vehicle: saline 101 % of control

CCC1=C(c2ccc(OC)cc2)CCC(C(=O)O)C1C (stereo unspecified)
inactive: dose: 6.0 mg/kg/injection, schedule: Q01DX Z (ip), vehicle: saline 100 % of control | dose: 12.0 mg/kg/injection, schedule: Q01DX Z (ip), vehicle: saline 96 % of control | dose: 25.0 mg/kg/injection, schedule: Q01DX Z (ip), vehicle: saline 102 % of control | dose: 50.0 mg/kg/injection, schedule: Q01DX Z (ip), vehicle: saline 100 % of control | dose: 100.0 mg/kg/injection, schedule: Q01DX Z (ip), vehicle: saline 102 % of control | dose: 200.0 mg/kg/injection, schedule: Q01DX Z (ip), vehicle: saline 100 % of control | dose: 400.0 mg/kg/injection, schedule: Q01DX Z (ip), vehicle: saline 110 % of control | dose: 800.0 mg/kg/injection, schedule: Q01DX Z (ip), vehicle: saline 98 % of control and 120 % of control

CCCCCP(=O)(CCCCC)C1CCCC1
inactive: dose: 25.0 mg/kg/injection, schedule: Q04DX002 (ip), vehicle: saline with Tween-80 113 % of control | dose: 50.0 mg/kg/injection, schedule: Q04DX002 (ip), vehicle: saline with Tween-80 100 % of control | [5] 94 % of control and 90 % of control

COc1ccc(CNCCCCO)cc1
inactive: dose: 50.0 mg/kg/injection, schedule: Q01DX009 (ip), vehicle: other 106 % of control | dose: 100.0 mg/kg/injection, schedule: Q01DX001 (ip), vehicle: other 104 % of control | dose: 100.0 mg/kg/injection, schedule: Q01DX009 (ip), vehicle: other 102 % of control | dose: 200.0 mg/kg/injection, schedule: Q01DX001 (ip), vehicle: other 106 % of control | dose: 200.0 mg/kg/injection, schedule: Q01DX009 (ip), vehicle: other 95 % of control | dose: 400.0 mg/kg/injection, schedule: Q01DX001 (ip), vehicle: other 97 % of control

CCC12C=CCN3CCC4(C(=C(C(=O)OC)C1)Nc1cc(OC)ccc14)C32 (stereo unspecified)
inactive: dose: 100.0 mg/kg/injection, schedule: Q04DX002 (ip), vehicle: saline 110 % of control | dose: 200.0 mg/kg/injection, schedule: Q04DX002 (ip), vehicle: saline 121 % of control

CCCCCCCCCCCC(=O)[O][Pb]([CH2]C)([CH2]C)[CH2]C
inactive: dose: 6.25 mg/kg/injection, schedule: Q04DX003 (ip), vehicle: saline with Tween-80 101 % of control | dose: 12.5 mg/kg/injection, schedule: Q04DX003 (ip), vehicle: saline with Tween-80 102 % of control | dose: 100.0 mg/kg/injection, schedule: Q04DX003 (ip), vehicle: saline with Tween-80 106 % of control

CCN(CC)CCSSCCN(CC)CC
inactive: dose: 50.0 mg/kg/injection, schedule: Q01DX001 (ip), vehicle: saline 88 % of control | dose: 100.0 mg/kg/injection, schedule: Q01DX001 (ip), vehicle: saline 96 % of control

Nc1cccc(C(=O)O)c1C(=O)O
inactive: dose: 6.25 mg/kg/injection, schedule: Q01DX009 (ip), vehicle: saline with Tween-80 100 % of control | dose: 12.5 mg/kg/injection, schedule: Q01DX009 (ip), vehicle: saline with Tween-80 96 % of control | dose: 25.0 mg/kg/injection, schedule: Q01DX009 (ip), vehicle: saline with Tween-80 91 % of control | [3] 91 % of control | dose: 100.0 mg/kg/injection, schedule: Q04DX003 (ip), vehicle: Klucel (hydroxypropylcellulose) (HPC) 100 % of control | [4] 94 % of control | dose: 200.0 mg/kg/injection, schedule: Q04DX003 (ip), vehicle: Klucel (hydroxypropylcellulose) (HPC) 91 % of control

NC(=S)NNC(=O)CN1C(=O)c2ccccc2C1=O
inactive: dose: 100.0 mg/kg/injection, schedule: Q01DX001 (ip), vehicle: Klucel (hydroxypropylcellulose) (HPC) 102 % of control | dose: 200.0 mg/kg/injection, schedule: Q01DX001 (ip), vehicle: Klucel (hydroxypropylcellulose) (HPC) 105 % of control | dose: 400.0 mg/kg/injection, schedule: Q01DX001 (ip), vehicle: Klucel (hydroxypropylcellulose) (HPC) 102 % of control

CNc1n[nH]c(=S)s1
inactive: dose: 100.0 mg/kg/injection, schedule: Q04DX002 (ip), vehicle: Klucel (hydroxypropylcellulose) (HPC) 101 % of control | dose: 200.0 mg/kg/injection, schedule: Q04DX002 (ip), vehicle: Klucel (hydroxypropylcellulose) (HPC) 104 % of control | dose: 400.0 mg/kg/injection, schedule: Q04DX002 (ip), vehicle: Klucel (hydroxypropylcellulose) (HPC) 104 % of control

CCSc1cccc(C(=O)O)c1
inactive: [1] 102 % of control | [2] 94 % of control | dose: 400.0 mg/kg/injection, schedule: Q01DX001 (ip), vehicle: carboxymethylcellulose (CMC) 100 % of control

COc1ccc(C2CCc3cc4c(cc3C2=O)OCO4)cc1OC (stereo unspecified)
inactive: dose: 100.0 mg/kg/injection, schedule: Q01DX009 (ip), vehicle: saline with Tween-80 98 % of control | dose: 200.0 mg/kg/injection, schedule: Q01DX009 (ip), vehicle: saline with Tween-80 98 % of control | dose: 400.0 mg/kg/injection, schedule: Q01DX009 (ip), vehicle: saline with Tween-80 98 % of control

COc1cc(OC)c(N=Nc2sc(N)nc2C)cc1Cl
inactive: dose: 75.0 mg/kg/injection, schedule: Q01DX001 (ip), vehicle: saline 92 % of control | dose: 150.0 mg/kg/injection, schedule: Q01DX001 (ip), vehicle: saline 97 % of control | dose: 300.0 mg/kg/injection, schedule: Q01DX001 (ip), vehicle: saline 94 % of control

O=C(NCCCl)Nc1ccc(C(=O)O)c(O)c1
inactive: dose: 80.0 mg/kg/injection, schedule: Q04DX002 (ip), vehicle: Klucel (hydroxypropylcellulose) (HPC) 98 % of control | dose: 160.0 mg/kg/injection, schedule: Q04DX002 (ip), vehicle: Klucel (hydroxypropylcellulose) (HPC) 88 % of control | dose: 320.0 mg/kg/injection, schedule: Q04DX002 (ip), vehicle: Klucel (hydroxypropylcellulose) (HPC) 91 % of control
